From patent US12227501B2, “3-amino-2-[2-(acylamino)pyridin-4-yl]-1,5,6,7-tetrahydro-4h-pyrrolo[3,2-c]pyridin-4-one as CSNK1 inhibitors” (Bayer Aktiengesellschaft, priority 2019, dated 2025)
Values joined by “and” are separate entries in the source; they are usually repeats but may differ in a detail not shown here. Equal entries are not always repeated. Where two headings read alike, the source gives them in different places.

Columns and labels:
Assay type in all cases: biochemical
human CSNK1D = human CSNK1D (Homo sapiens (Human), UniProt P48730); assay: CSNK1D Assay (ADP-Glo, 1 μM ATP); conditions: read-out: CSNK1D IC50 [mol/l] (median)
Method in brief: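 Activity is read as ADP produced, by ADP-Glo luminescence after 1 h steps at 22 °C. The reaction uses 1 μM ATP, a biotinylated peptide and insect-cell-expressed GST–CSNK1D (about 0.5 ng/μL) in pH 7.5 HEPES buffer, with 15 min compound–enzyme preincubation.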

human CSNK1A1 [1] = target: T1, human CSNK1A1 (Homo sapiens (Human), UniProt P48729); assay: CSNK1A1 Assay 2 (ADP-Glo, 1 μM ATP); conditions: substrate biotin-Ahx-KRRRAL-pS-VASLPGL, read-out: CSNK1A1 Assay 2 IC50 [mol/l] (median)
Method in brief: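 Full-length human CSNK1A1 as an N-terminal GST fusion (baculovirus/insect cells) with biotinylated peptide substrate biotin-Ahx-KRRRAL-pS-VASLPGL and 1 μM ATP, in HEPES pH 7.5 buffer. Compounds were pre-incubated with enzyme (~0.0375 ng/μL) for 15 min at 22 °C. Generated ADP was read by ADP-Glo luminescence as the activity measure.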

[2] = target: wild-type Epidermal Growth Factor Receptor (EGFR) (Homo sapiens (Human), UniProt P00533); assay: WT-EGFR Kinase Assay (TR-FRET, 2 mM ATP)
human CSNK1A1 [3] = target: T1, human CSNK1A1; assay: CSNK1A1 High ATP Assay (ADP-Glo, 1 mM ATP); conditions: read-out: CSNK1A1 high ATP assay IC50 [mol/l] (median)
Method in brief: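 Kinase activity taken as ADP generated, quantified by ADP-Glo luminescence after 1 h ATP depletion and 1 h detection at 22 °C. Enzyme is GST–full-length human CSNK1A1 (insect cell-expressed), pre-bound to compound for 15 min, with phosphopeptide substrate and 1 mM ATP.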

[4] = EGFR Wildtyp- 2 mM ATP IC50 [mol/l] (median)
[5] = read-out: EGFR Wildtyp- 2 mM ATP IC50 [mol/l] (median)

Sequence of human CSNK1D (P48730 whole entry): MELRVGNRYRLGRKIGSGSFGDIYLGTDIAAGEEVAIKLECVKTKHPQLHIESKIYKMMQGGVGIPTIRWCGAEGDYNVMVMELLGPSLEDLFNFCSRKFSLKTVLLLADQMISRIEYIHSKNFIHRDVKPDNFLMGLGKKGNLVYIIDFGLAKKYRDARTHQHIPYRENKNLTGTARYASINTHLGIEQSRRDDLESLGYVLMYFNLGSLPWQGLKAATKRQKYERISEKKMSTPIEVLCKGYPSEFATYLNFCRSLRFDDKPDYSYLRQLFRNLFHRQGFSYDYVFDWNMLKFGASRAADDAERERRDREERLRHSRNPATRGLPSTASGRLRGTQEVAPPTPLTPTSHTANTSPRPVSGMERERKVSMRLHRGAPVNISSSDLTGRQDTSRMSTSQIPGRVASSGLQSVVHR
Sequence of wild-type Epidermal Growth Factor Receptor (EGFR) (P00533 669-1210): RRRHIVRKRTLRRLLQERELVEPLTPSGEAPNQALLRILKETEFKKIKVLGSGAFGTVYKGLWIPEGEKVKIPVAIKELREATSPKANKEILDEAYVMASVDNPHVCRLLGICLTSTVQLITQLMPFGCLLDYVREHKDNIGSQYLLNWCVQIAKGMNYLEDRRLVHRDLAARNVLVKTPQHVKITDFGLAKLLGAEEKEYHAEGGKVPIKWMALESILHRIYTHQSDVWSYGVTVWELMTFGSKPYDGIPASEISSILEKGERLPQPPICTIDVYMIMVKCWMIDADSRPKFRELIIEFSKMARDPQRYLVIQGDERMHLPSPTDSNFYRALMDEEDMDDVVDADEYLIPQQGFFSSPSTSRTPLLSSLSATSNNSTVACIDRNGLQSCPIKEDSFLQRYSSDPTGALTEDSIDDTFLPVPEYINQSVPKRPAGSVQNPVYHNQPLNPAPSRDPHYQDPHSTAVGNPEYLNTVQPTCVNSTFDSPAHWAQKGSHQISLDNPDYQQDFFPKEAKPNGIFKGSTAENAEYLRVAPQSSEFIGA
T1 sequence (P48729 whole entry, the tested form may be a part): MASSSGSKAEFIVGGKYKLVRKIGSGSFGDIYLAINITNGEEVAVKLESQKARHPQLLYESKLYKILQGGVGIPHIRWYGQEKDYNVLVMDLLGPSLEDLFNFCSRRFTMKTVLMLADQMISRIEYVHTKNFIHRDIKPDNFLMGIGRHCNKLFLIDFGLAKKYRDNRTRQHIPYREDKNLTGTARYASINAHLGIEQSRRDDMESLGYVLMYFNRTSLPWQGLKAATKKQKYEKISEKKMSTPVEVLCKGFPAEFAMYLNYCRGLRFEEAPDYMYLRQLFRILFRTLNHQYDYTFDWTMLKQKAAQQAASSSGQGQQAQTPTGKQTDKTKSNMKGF

| Structure (SMILES) | IC50 (human CSNK1D) [µM] | IC50 (human CSNK1A1 [1]) | IC50 [2, 4] [µM] | IC50 (human CSNK1A1 [3]) | IC50 [2, 5] [µM] |
| --- | --- | --- | --- | --- | --- |
| CC(C(=O)Nc1cc(-c2[nH]c3c(c2Nc2ccccc2)C(=O)N(C)C(C)C3)ccn1)c1ccc(F)cc1 (single isomer, unassigned; (-)) [Example 94, (−)-(2RS)—N-{4-[(6R*)-3-anilino-5,6-dimethyl-4-oxo-4,5,6,7-tetrahydro-1H-pyrrolo[3,2-c]pyridin-2-yl]pyridin-2-yl}-2-(4-fluorophenyl)propanamide] | 0.00702 | 0.00433 µM | 4.41 | 0.154 µM | – |
| CC(C(=O)Nc1cc(-c2[nH]c3c(c2Nc2ccccc2)C(=O)N(C)C(C)C3)ccn1)c1ccc(F)cc1 (single isomer, unassigned; (-)) [Example 93, (−)-N-{4-[3-anilino-5,6-dimethyl-4-oxo-4,5,6,7-tetrahydro-1H-pyrrolo[3,2-c]pyridin-2-yl]pyridin-2-yl}-2-(4-fluorophenyl)propanamide] | 0.0473 | 0.0472 µM | > 20 | 3.18 µM | – |
| CC(C(=O)Nc1cc(-c2[nH]c3c(c2Nc2ccccc2)C(=O)N(C)C2(CCC2)C3)ccn1)c1ccc(F)cc1 (single isomer, unassigned; enantiomer 2) [Example 159, (+)-N-[4-(3′-anilino-5′-methyl-4′-oxo-1′,4′,5′,7′-tetrahydrospiro[cyclobutane-1,6′-pyrrolo[3,2-c]pyridin]-2′-yl)pyridin-2-yl]-2-(4-fluorophenyl)propanamide (Enantiomer 2)] | 0.0907 | 0.0903 µM | – | 0.217 µM | > 20 |
| CN1CCc2[nH]c(-c3ccnc(NC(=O)Cc4ccc(F)c(F)c4)c3)c(Nc3ccccc3)c2C1=O [Example 83, N-[4-(3-anilino-5-methyl-4-oxo-4,5,6,7-tetrahydro-1H-pyrrolo[3,2-c]pyridin-2-yl)pyridin-2-yl]-2-(3,4-difluorophenyl)acetamide] | 0.0073 | 0.00303 µM | – | 0.0614 µM | 2.92 |
| CN1CCc2[nH]c(-c3ccnc(NC(=O)C(CC(F)F)c4ccc(F)cc4)c3)c(Nc3ccccc3)c2C1=O (single isomer, unassigned; (+)) [Example 63, (+)-N-[4-(3-anilino-5-methyl-4-oxo-4,5,6,7-tetrahydro-1H-pyrrolo[3,2-c]pyridin-2-yl)pyridin-2-yl]-4,4-difluoro-2-(4-fluorophenyl)butanamide] | 0.004 | 0.00212 µM | 6.68 | 0.0121 µM | – |
| CN1C(=O)c2c([nH]c(-c3ccnc(NC(=O)C(CC(F)F)c4ccc(F)cc4)c3)c2Nc2ccccc2F)CC1(C)C (single isomer, unassigned) [Example 47, 4,4-difluoro-N-{4-[3-(2-fluoroanilino)-5,6,6-trimethyl-4-oxo-4,5,6,7-tetrahydro-1H-pyrrolo[3,2-c]pyridin-2-yl]pyridin-2-yl}-2-(4-fluorophenyl)butanamide] | 0.151 | 0.163 µM | – | > 20 µM | > 20 |
| CC1Cc2[nH]c(-c3ccnc(NC(=O)C(CC(F)F)c4ccc(F)cc4)c3)c(Nc3ccccc3F)c2C(=O)N1C (single isomer, unassigned; (-)) [Example 104, (−)-4,4-difluoro-N-{4-[3-(2-fluoroanilino)-5,6-dimethyl-4-oxo-4,5,6,7-tetrahydro-1H-pyrrolo[3,2-c]pyridin-2-yl]pyridin-2-yl}-2-(4-fluorophenyl)butanamide] | 0.0605 | 0.0679 µM | – | 4.49 µM | > 20 |
| O=C1NC2(CCC2)Cc2[nH]c(-c3ccnc(NC(=O)C(CC(F)F)c4ccc(F)cc4)c3)c(Nc3ccccc3)c21 (single isomer, unassigned; (-)) [Example 56, (−)-N-[4-(3′-anilino-4′-oxo-1′,4′,5′,7′-tetrahydrospiro[cyclobutane-1,6′-pyrrolo[3,2-c]pyridin]-2′-yl)pyridin-2-yl]-4,4-difluoro-2-(4-fluorophenyl)butanamide] | 0.0279 | 0.0192 µM | 0.857 | 1.08 µM | – |
| CC(C(=O)Nc1cc(-c2[nH]c3c(c2Nc2ccccc2)C(=O)N(C)C2(CCC2)C3)ccn1)c1ccc(F)cc1 (single isomer, unassigned; enantiomer 1) [Example 158, (−)-N-[4-(3′-anilino-5′-methyl-4′-oxo-1′,4′,5′,7′-tetrahydrospiro[cyclobutane-1,6′-pyrrolo[3,2-c]pyridin]-2′-yl)pyridin-2-yl]-2-(4-fluorophenyl)propanamide (Enantiomer 1)] | 0.188 | 0.239 µM and 0.263 µM and 0.0525 µM and 0.0677 µM | > 20 | > 1.63 µM and 5.57 µM | – |
| CC1Cc2[nH]c(-c3ccnc(NC(=O)Cc4ccncc4)c3)c(Nc3ccccc3)c2C(=O)N1C (single isomer, unassigned; (-)) [Example 99, (−)-N-{4-[(6S*)-3-anilino-5,6-dimethyl-4-oxo-4,5,6,7-tetrahydro-1H-pyrrolo[3,2-c]pyridin-2-yl]pyridin-2-yl}-2-(pyridin-4-yl)acetamide] | 0.0051 | 0.00378 µM | 0.329 | 0.0259 µM | – |
| O=C(Cc1ccc(F)cc1)Nc1cc(-c2[nH]c3c(c2Nc2ccccc2)C(=O)N(CC2CC2)CC3)ccn1 [Example 20, N-{4-[3-anilino-5-(cyclopropylmethyl)-4-oxo-4,5,6,7-tetrahydro-1H-pyrrolo[3,2-c]pyridin-2-yl]pyridin-2-yl}-2-(4-fluorophenyl)acetamide] | 0.0242 | 0.00972 µM | 18.1 | 1.66 µM | > 20 |
| CC(C(=O)Nc1cc(-c2[nH]c3c(c2Nc2ccccc2Cl)C(=O)NCC3)ccn1)c1ccc(F)cc1 (stereo not shown) [Example 14, N-{4-[3-(2-chloroanilino)-4-oxo-4,5,6,7-tetrahydro-1H-pyrrolo[3,2-c]pyridin-2-yl]pyridin-2-yl}-2-(4-fluorophenyl)propanamide] | 0.014 | 0.00496 µM | – | 0.0739 µM | > 20 |
| Cc1ccccc1Nc1c(-c2ccnc(NC(=O)C(CC(F)F)c3ccc(F)cc3)c2)[nH]c2c1C(=O)NC(C)(C)C2 (single isomer, unassigned; enantiomer 2) [Example 137, N-{4-[6,6-dimethyl-3-(2-methylanilino)-4-oxo-4,5,6,7-tetrahydro-1H-pyrrolo[3,2-c]pyridin-2-yl]pyridin-2-yl}-4,4-difluoro-2-(4-fluorophenyl)butanamide (Enantiomer 2)] | 0.0827 | 0.0422 µM | – | 0.451 µM | > 20 |
| CC(C(=O)Nc1cc(-c2[nH]c3c(c2Nc2ccccc2)C(=O)N(CC(C)(C)O)CC3)ccn1)c1ccc(F)cc1 (stereo not shown) [Example 24, N-{4-[3-anilino-5-(2-hydroxy-2-methylpropyl)-4-oxo-4,5,6,7-tetrahydro-1H-pyrrolo[3,2-c]pyridin-2-yl]pyridin-2-yl}-2-(4-fluorophenyl)propanamide] | 0.064 | 0.0392 µM | – | > 5.71 µM and 4.24 µM | > 20 |
| CC(C(=O)Nc1cc(-c2[nH]c3c(c2Nc2ccccc2)C(=O)N(C)C(C)C3)ccn1)c1ccc(F)cc1 (single isomer, unassigned; (-)) [Example 95, (−)-N-{4-[3-anilino-5,6-dimethyl-4-oxo-4,5,6,7-tetrahydro-1H-pyrrolo[3,2-c]pyridin-2-yl]pyridin-2-yl}-2-(4-fluorophenyl)propanamide] | 0.0453 | 0.0462 µM | 6.31 | 2.46 µM | – |
| CC1(C)Cc2[nH]c(-c3ccnc(NC(=O)C(CN)c4ccc(F)cc4)c3)c(Nc3ccccc3)c2C(=O)N1 (single isomer, unassigned; enantiomer 1) [Example 140, 3-amino-N-[4-(3-anilino-6,6-dimethyl-4-oxo-4,5,6,7-tetrahydro-1H-pyrrolo[3,2-c]pyridin-2-yl)pyridin-2-yl]-2-(4-fluorophenyl)propanamide (Enantiomer 1)] | 0.00995 | 0.0041 µM | > 20 | 0.0569 µM | – |
| CCN1CCc2[nH]c(-c3ccnc(NC(=O)C(C)c4ccc(F)cc4)c3)c(Nc3ccccc3)c2C1=O (stereo not shown) [Example 21, N-[4-(3-anilino-5-ethyl-4-oxo-4,5,6,7-tetrahydro-1H-pyrrolo[3,2-c]pyridin-2-yl)pyridin-2-yl]-2-(4-fluorophenyl)propanamide] | 0.0215 | 0.00767 µM | – | 0.344 µM | > 20 |
| COCCN1CCc2[nH]c(-c3ccnc(NC(=O)Cc4ccc(F)cc4)c3)c(Nc3ccccc3)c2C1=O [Example 53, N-{4-[3-anilino-5-(2-methoxyethyl)-4-oxo-4,5,6,7-tetrahydro-1H-pyrrolo[3,2-c]pyridin-2-yl]pyridin-2-yl}-2-(4-fluorophenyl)acetamide] | 0.015 | 0.00968 µM | – | 0.907 µM | 6.03 |
